Measurements taken from patent US11793748B1, “Pharmaceutical compositions of aspirin for parenteral administration” (GOOD HEALTH, LLC, priority 2019, dated 2023).

What was measured:
[1] = Reconstitution trials for micronized aspirin with aqueous solutions containing bases; type: physicochemical; settings: aspirin 5.0 mg/mL; reconstitution with meglumine
Protocol: […] […] Shaken up and down vigorously to check reconstitution and clarity.
The reconstitution of higher doses of aspirin with aqueous solutions of bases indicate superiority using a combination of meglumine and sodium citrate over same bases used separately.
Therefore, these dilute solutions of the invention are suitable for slow infusion for a longer time. For example, the infusion can be made over 30 minutes to about 100 minutes with an infusion rate of about 3 mL/min to 0.8 mL/min. The rate of infusion of the invention can depend on the clinical conditions of patients, and can be modified as necessary. In certain cases, a bolus injection of concentrated aspirin solutions may be required. The aspirin solution (50 mg/mL) of the invention can be given as a bolus injection (e.g., 10 mL within 2-5 minutes).

[2] = Stability of recrystallized aspirin powder; settings: for % Assay / % S.A (salicylic acid impurity): 6 months 40° C./75% RH
[3] = Stability of reconstituted aspirin solutions by HPLC; type: physicochemical
Protocol: Stability was determined by HPLC analysis using the following parameters:
Mobile Phase: Solution containing 15% acetonitrile and 85% water with 2 g/L of heptanesulfonate sodium. The pH of the solution was adjusted to 3.4.
Injection volume: 10 μl, the concentration of aspirin in sample and standard injections were maintained at about 0.5 mg/mL.
The stability of Trials 3-5 was tested using the HPLC method described above.

[4] = Solubility testing of aspirin in commonly used co-solvents; type: physicochemical; settings: 120 mg/3 mL; for Reconstitution time for milled API (Approx. 124 μm, BSS Sieve 120 passed): after shaking
Protocol: The solubility of aspirin was determined using propylene glycol and polyethylene glycol (PEG-300 and PEG-400), which are widely used in intravenous formulations.

[5] = Effect of bases on reconstitution time for aspirin in propylene glycol; type: physicochemical; settings: aspirin 40 mg/mL, with shaking
Protocol: Solutions of propylene glycol with different bases were prepared by sonicating mixtures of propylene glycol and bases. Aspirin was added to those solutions and shaken in a circular motion.

[6] = Solubility and reconstitution of aspirin in semi-aqueous diluents; type: physicochemical; settings: aspirin 80 mg (sieve 120 mesh passed), after shaking for 5 minutes
Protocol: Diluent solutions were prepared by mixing solvent and water. Aspirin was added and the vials were shaken in a swirling motion.

[7] = Effect of lactose and mannitol combination on reconstitution time; type: physicochemical; settings: aspirin 80 mg (120 sieve passed)
Protocol: A mixture of lactose and mannitol were tried to improve reconstitution time. Diluents were then prepared by dissolving base and sugars in water and followed by addition of PEG 300. The diluent was transferred to a vial containing aspirin, and the vial was shaken in a swirling motion.

[8] = Effect of lactose on reconstitution time in solvent-water mixture; type: physicochemical; settings: aspirin 80 mg, lactose 80 mg
Protocol: Diluent Preparation: Water, lactose, and base were taken in a vial and sonicated until a clear solution is formed. Solvent was then added and mixed for a minute. To these diluents, aspirin was added and shaken in a swirling motion.

[9] = Reconstitution time for aspirin-lactose premix; type: physicochemical; settings: aspirin 80 mg + 160 mg lactose premix (both 120 sieve passed), water 1.5 ml
Source text: […] The diluent was transferred to a vial containing aspirin triturated with lactose. The mixture was shaken in the vial in a swirling motion.

[10] = solubilization accompanied by aspirin degradation; cited from earlier work
[11] = bicin, tricin, CAPS, TAPS, HEPES and AMPSO buffers; remained as suspended particles; cited from earlier work
[12] = Aspirin API, not reconstituted (reference line of stability tables)
[13] = Lysine 40 mg, lactose 80 mg + mannitol 80 mg, water 1.2 ml + PEG-300 1.8 ml
[14] = Meglumine 40 mg, lactose 20 mg + mannitol 60 mg, distilled water 1.2 ml + PEG 300 1.8 ml
[15] = Meglumine 40 mg, lactose 20 mg + mannitol 60 mg, distilled water 1.5 ml + PEG 300 1.5 ml
[16] = Meglumine 40 mg, lactose 20 mg + mannitol 60 mg, distilled water 1.8 ml + PEG 300 1.2 ml
[17] = Tris 40 mg, lactose 20 mg + mannitol 60 mg, distilled water 1.2 ml + PEG 300 1.8 ml
[18] = Tris 40 mg, lactose 20 mg + mannitol 60 mg, distilled water 1.5 ml + PEG 300 1.5 ml
[19] = Tris 40 mg, lactose 20 mg + mannitol 60 mg, distilled water 1.8 ml + PEG 300 1.2 ml
[20] = Tris 40 mg, lactose 80 mg + mannitol 80 mg, water 1.2 ml + PEG-300 1.8 ml
[21] = Tris 40 mg, lactose 80 mg + mannitol 80 mg, water 1.5 ml + PEG-300 1.5 ml
[22] = Tris 40 mg, lactose 80 mg + mannitol 80 mg, water 1.8 ml + PEG-300 1.2 ml
[23] = Lysine 40 mg, water 1.8 ml + PEG 300 1.2 ml
[24] = Lysine 40 mg, water 1.8 ml + PEG 400 1.2 ml
[25] = Tris 40 mg, water 1.8 ml + PEG 300 1.2 ml
[26] = Tris 40 mg, water 1.8 ml + PEG 400 1.2 ml

With `CC(=O)Oc1ccccc1C(=O)O` [Aspirin, aspirin] the “time to clear solution on reconstitution” value [1] was at most 2 min, the “period stable at room temperature” value ([2]; room temperature, inferred from accelerated stability data) was “at least 2 years” and the “% Salicylic acid” value [3, 12] was 0.24%. The Aspirin peak purity [3, 12] was 99.76%, the “period for which reconstituted aspirin was stable” value ([3]; higher concentration (50 mg/mL), aqueous solution containing both meglumine and sodium citrate, 2-8° C.) was “about 5 hours” and the “Reconstitution time for unmilled Aspirin” value ([4]; PEG-300) was “Not easily soluble,”. For the same molecule, the “Reconstitution time for milled API (Approx. 124 μm, BSS Sieve 120 passed)” value (“Reconstitution time for milled API” below) ([4]; PEG-300) was “Soluble in 3 minutes,”, the “Reconstitution time for unmilled Aspirin” value ([4]; PEG-400) was “Not easily soluble,” and the “Reconstitution time for milled API” value ([4]; PEG-400) was “Soluble in 3 minutes,”. The “Reconstitution time for unmilled Aspirin” value ([4]; propylene glycol) was “Not easily soluble,”, the “Reconstitution time for milled API” value ([4]; propylene glycol) was “Soluble in 3 minutes,” and the “Reconstitution time for milled API” value ([5]; propylene glycol with 10 mg/mL Arginine) was 3 minutes with shaking. For the same molecule, the “Reconstitution time for milled API” value ([5]; propylene glycol with 10 mg/mL Lysine) was 1.40 minutes with shaking, the “Reconstitution time for milled API” value ([5]; propylene glycol with 10 mg/mL Meglumine) was 2 minutes with shaking and the “Reconstitution time for milled API” value ([5]; propylene glycol with 10 mg/mL Tromethamine) was 1.45 minutes with shaking. For the same molecule, the Observation ([6]; 1.8 mL PEG 300 + 1.2 mL water) was “Turbid with particles”, the Observation ([6]; 1.8 mL PEG 400 + 1.2 mL water) was “Turbid with particles” and the Observation ([6]; 1.8 mL propylene glycol + 1.2 mL water) was “Turbid with particles”. For the same molecule, the Observation [7, 13] was “hazy”, the Reconstitution time [7, 13] was 2.00 min and the Observation [7, 14] was “hazy”. For the same molecule, the Reconstitution time [7, 14] was 2.00 min, the Observation [7, 15] was “Clear” and the Reconstitution time [7, 15] was 2.20 min. For the same molecule, the Observation [7, 16] was “Clear”, the Reconstitution time [7, 16] was 2.30 min and the Observation [7, 17] was “Clear”. For the same molecule, the Reconstitution time [7, 17] was 2.00 min, the Observation [7, 18] was “Clear” and the Reconstitution time [7, 18] was 2.10 min. The Observation [7, 19] was “Clear”, the Reconstitution time [7, 19] was 2.30 min and the Observation [7, 20] was “hazy”. The Reconstitution time [7, 20] was 2.10 min, the Observation [7, 21] was “Clear” and the Reconstitution time [7, 21] was 2.25 min. For the same molecule, the Observation [7, 22] was “Clear”, the Reconstitution time [7, 22] was 2.10 min and the Observation [8, 23] was “Clear”. The Reconstitution time [8, 23] was 3.15 min, the Observation [8, 24] was “Clear” and the Reconstitution time [8, 24] was 3.50 min. The Observation [8, 25] was “Clear”, the Reconstitution time [8, 25] was 3.20 min and the Observation [8, 26] was “Clear”. For the same molecule, the Reconstitution time [8, 26] was 2.40 min, the Observation ([9]; Tris 30 mg) was “Clear” and the Reconstitution time ([9]; Tris 30 mg) was 2.00 min. For the same molecule, the Observation ([9]; Tris 35 mg) was “Clear”, the Reconstitution time ([9]; Tris 35 mg) was 1.25 min and the Observation ([9]; Tris 40 mg) was “Clear”. The Reconstitution time ([9]; Tris 40 mg) was 1.00 min, the Observation ([9]; Tris 50 mg) was “hazy” and the Reconstitution time ([9]; Tris 50 mg) was 1.40 min. For the same molecule, the “solubility in aqueous alkali hydroxide solutions and aqueous bicarbonate solutions” value [10] was “soluble” and the “solubility in aqueous buffers” value [11] was “poor”.
With `CC(=O)Oc1ccccc1C(=O)O` [Recrystallization from Acetone] the “% Assay” value ([2]; recrystallized powder) was 97.20% and the “% S.A (salicylic acid impurity)” value ([2]; recrystallized powder) was 0.505%.
In the case of `CC(=O)Oc1ccccc1C(=O)O` [Recrystallization from Ethanol], the “% Assay” value ([2]; recrystallized powder) is reported as 97.72%, the “% S.A (salicylic acid impurity)” value ([2]; recrystallized powder) is reported as 0.452% and the “stability at accelerated conditions” value ([2]; recrystallized powder, accelerated conditions (6 months 40° C./75% RH)) is reported as “stable”.
With `CC(=O)Oc1ccccc1C(=O)O` [Recrystallization from Isopropanol] the “% Assay” value ([2]; recrystallized powder) was 99.35%.
